# Columns and labels:
# Format in all cases: in vivo
# [1] = tested on: sedge, umbrella (small-flower umbrella sedge, Cyperus difformis); assay: Test B flooded paddy test; settings: Flood, 250 g ai/ha; 0 to 100 scale where 0 is no effect and 100 is complete control; 13 to 15 d
# Summary of the method: (§1)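 Percent control, visually estimated after 13–15 d in the greenhouse on a 0–100 basis, compares treated pots with untreated ones; compound was put into paddy water 3 cm above the soil when plants had two leaves.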
# rice (Oryra sativa) = assay: Test B flooded paddy test; settings: Flood, 250 g ai/ha; 0 to 100 scale where 0 is no effect and 100 is complete control; 13 to 15 d
# Summary of the method: as §1
# [2] = tested on: barnyardgrass (Echinochloa crus-galli); assay: Test B flooded paddy test; settings: Flood, 250 g ai/ha; 0 to 100 scale where 0 is no effect and 100 is complete control; 13 to 15 d
# Summary of the method: as §1
# [3] = tested on: ducksalad (Heteranthera limosa); assay: Test B flooded paddy test; settings: Flood, 250 g ai/ha; 0 to 100 scale where 0 is no effect and 100 is complete control; 13 to 15 d
# Summary of the method: as §1
# [4] = tested on: wheat (Triticum aestivum); assay: Test A postemergence; settings: postemergence
# Summary of the method: (§2)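 Visual injury scores from 0, no effect, to 100, complete control, were assigned versus untreated controls roughly 10 d after treatment in the greenhouse. Test chemicals, formulated with surfactant in a non-phytotoxic solvent, were applied to planted seeds as a preemergence soil spray or postemergence to one- to two-leaf plants 2 to 10 cm tall, in loam–sand soil.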
# [5] = tested on: blackgrass (Alopecurus myosuroides); assay: Test A postemergence
# Summary of the method: as §2
# Kochia (Kochia scoparia) [6] = assay: Test A postemergence; settings: postemergence
# Summary of the method: as §2
# [7] = tested on: giant foxtail (Setaria faberii); assay: Test A postemergence; settings: postemergence
# Summary of the method: as §2
# [8] = tested on: barnyardgrass (Echinochloa crus-galli); assay: Test A postemergence
# Summary of the method: as §2
# [9] = tested on: pigweed (Amaranthus retroflexus); assay: Test A postemergence; settings: postemergence
# Summary of the method: as §2
# corn (Zea mays) = assay: Test A postemergence; settings: postemergence
# Summary of the method: as §2
# [10] = tested on: ryegrass, Italian (Italian ryegrass, Lolium multiflorum); assay: Test A postemergence; settings: postemergence
# Summary of the method: as §2
# [11] = tested on: ragweed (common ragweed, Ambrosia elatior); assay: Test A postemergence; settings: postemergence
# Summary of the method: as §2
# [12] = tested on: Galium (catchweed bedstraw, Galium aparine); assay: Test A postemergence; settings: postemergence
# Summary of the method: as §2
# Kochia (Kochia scoparia) [13] = assay: Test A preemergence
# Summary of the method: as §2
# [14] = tested on: giant foxtail (Setaria faberii); assay: Test A preemergence
# Summary of the method: as §2
# [15] = tested on: barnyardgrass (Echinochloa crus-galli); assay: Test A preemergence
# Summary of the method: as §2
# [16] = tested on: pigweed (Amaranthus retroflexus); assay: Test A preemergence
# [17] = tested on: ryegrass, Italian (Italian ryegrass, Lolium multiflorum); assay: Test A preemergence
# Summary of the method: as §2
# [18] = tested on: ragweed (common ragweed, Ambrosia elatior); assay: Test A preemergence
# Summary of the method: as §2
# [19] = 125 g ai/ha, visual injury rating on 0 to 100 scale (0 no effect, 100 complete control), approx. 10 d
# [20] = 500 g ai/ha, 0 to 100 scale, 0 no effect, 100 complete control
# [21] = 500 g ai/ha, postemergence, 0 to 100 scale, 0 no effect, 100 complete control
# [22] = Postemergence, 125 g ai/ha, visual injury, 0 to 100 scale (0 no effect, 100 complete control), approx. 10 d
# [23] = 125 g ai/ha, preemergence, 0 to 100 scale (0 no effect, 100 complete control)
# [24] = Preemergence, 500 g ai/ha, 0 is no effect, 100 is complete control
smiles,measurement,setting,value
CN1CC(c2cccc(OC(F)(F)C(F)F)c2)C(C(=O)Nc2cccc(F)c2F)C1=O (stereo not drawn) [Compound 392],"Plant response rating, Sedge, Umbrella",[1],0
same,"Plant response rating, Rice",rice (Oryra sativa),20
same,"Plant response rating, Barnyardgrass",[2],60
same,"Plant response rating, Ducksalad",[3],90
same,Wheat plant response rating,[4]; [19],20
same,"Plant response rating, Wheat",[4]; [20],70
same,"Plant response rating, Blackgrass",[5]; [21],70
same,"Plant response rating, Blackgrass",[5]; [22],70
same,Kochia plant response rating,Kochia (Kochia scoparia) [6]; [19],50
same,"Plant response rating, Kochia",Kochia (Kochia scoparia) [6]; [20],70
same,"Foxtail, Giant plant response rating",[7]; [19],90
same,"Plant response rating, Foxtail, Giant",[7]; [20],90
same,"Plant response rating, Barnyardgrass",[8]; [21],90
same,"Plant response rating, Barnyardgrass",[8]; [22],80
same,Pigweed plant response rating,[9]; [19],60
same,"Plant response rating, Pigweed",[9]; [20],70
same,Corn plant response rating,corn (Zea mays); [19],70
same,"Plant response rating, Corn",corn (Zea mays); [20],80
same,"Ryegrass, Italian plant response rating",[10]; [19],50
same,"Plant response rating, Ryegrass, Italian",[10]; [20],80
same,Ragweed plant response rating,[11]; [19],50
same,"Plant response rating, Ragweed",[11]; [20],20
same,Galium plant response rating,[12]; [19],70
same,"Plant response rating, Galium",[12]; [20],70
same,"Plant response rating, Kochia",Kochia (Kochia scoparia) [13]; [23],50
same,Kochia plant response rating (0 to 100 scale),Kochia (Kochia scoparia) [13]; [24],70
same,"Plant response rating, Foxtail, Giant",[14]; [23],90
same,"Foxtail, Giant plant response rating (0 to 100 scale)",[14]; [24],90
same,"Plant response rating, Barnyardgrass",[15]; [23],90
same,Barnyardgrass plant response rating (0 to 100 scale),[15]; [24],90
same,"Plant response rating, Pigweed",[16]; [23],70
same,Pigweed plant response rating (0 to 100 scale),[16]; [24],80
same,"Plant response rating, Ryegrass, Italian",[17]; [23],40
same,"Ryegrass, Italian plant response rating (0 to 100 scale)",[17]; [24],80
same,"Plant response rating, Ragweed",[18]; [23],70
same,Ragweed plant response rating (0 to 100 scale),[18]; [24],60

# Source: patent publication US12077503B2, “Substituted cyclic amides and their use as herbicides” (FMC CORPORATION, priority 2015, dated 2024)
